Patent EP4722207A1, “OXOISOINDOLINYL-SUBSTITUTED TETRAHYDROPYRIMIDINEDIONE DERIVATIVE AND USE THEREOF” (Gluetacs Therapeutics (Shanghai) Co., Ltd., priority 2023, dated 2024)

Experiments:
H2228 = test: Cell viability assay (CellTiter-Meiluncell Luminescent), tumor cell proliferation, H2228; conditions: Homo sapiens, NCI-H2228, 96 h; for inhibition at 0.01 µM: read-out: Inhibition Rate at 10 nM (%); for inhibition at 0.5 µM: read-out: Inhibition Rate at 500 nM (%)
IKZF1 = target: T1, IKZF1 (Homo sapiens, UniProt Q13422+Q96SW2); test: Western-blot assay, substrate protein degradation in hPBMCs: IKZF1; format: cell-based; conditions: 24 hours of compound treatment, 50 nM and 500 nM
T1 construct: effects of the compounds of the present disclosure on the expression of target proteins in cells; endogenous in cells; host or cells: human PBMCs (hPBMCs)
T1 sequence (Q13422 whole entry): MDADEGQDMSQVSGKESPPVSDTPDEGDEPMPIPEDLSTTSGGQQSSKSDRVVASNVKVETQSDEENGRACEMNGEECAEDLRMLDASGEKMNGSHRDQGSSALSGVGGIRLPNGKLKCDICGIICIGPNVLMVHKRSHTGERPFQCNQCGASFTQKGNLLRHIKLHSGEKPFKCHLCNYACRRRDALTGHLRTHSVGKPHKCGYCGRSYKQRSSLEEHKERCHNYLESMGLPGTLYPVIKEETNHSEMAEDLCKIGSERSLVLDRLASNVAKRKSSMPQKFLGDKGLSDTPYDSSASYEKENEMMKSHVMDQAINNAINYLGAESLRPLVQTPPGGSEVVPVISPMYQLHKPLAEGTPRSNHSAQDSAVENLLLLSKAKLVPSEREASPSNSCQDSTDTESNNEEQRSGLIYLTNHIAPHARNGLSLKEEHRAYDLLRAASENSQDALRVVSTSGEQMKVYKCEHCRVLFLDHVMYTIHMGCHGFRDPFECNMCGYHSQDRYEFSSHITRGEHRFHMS
T1 sequence (Q96SW2 whole entry): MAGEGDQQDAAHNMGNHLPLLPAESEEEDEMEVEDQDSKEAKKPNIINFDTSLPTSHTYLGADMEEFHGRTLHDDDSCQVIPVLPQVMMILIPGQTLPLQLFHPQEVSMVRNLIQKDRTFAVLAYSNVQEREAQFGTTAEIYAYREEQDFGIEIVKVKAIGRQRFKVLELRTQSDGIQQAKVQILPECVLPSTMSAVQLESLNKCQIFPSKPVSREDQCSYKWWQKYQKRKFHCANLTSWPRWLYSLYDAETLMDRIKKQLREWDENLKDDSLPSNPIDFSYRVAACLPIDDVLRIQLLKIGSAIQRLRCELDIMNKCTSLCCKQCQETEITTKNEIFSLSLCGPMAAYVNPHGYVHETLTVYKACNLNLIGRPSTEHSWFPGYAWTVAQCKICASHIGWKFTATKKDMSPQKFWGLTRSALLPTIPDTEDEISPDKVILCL
T1 sequence (Q16531 whole entry partner): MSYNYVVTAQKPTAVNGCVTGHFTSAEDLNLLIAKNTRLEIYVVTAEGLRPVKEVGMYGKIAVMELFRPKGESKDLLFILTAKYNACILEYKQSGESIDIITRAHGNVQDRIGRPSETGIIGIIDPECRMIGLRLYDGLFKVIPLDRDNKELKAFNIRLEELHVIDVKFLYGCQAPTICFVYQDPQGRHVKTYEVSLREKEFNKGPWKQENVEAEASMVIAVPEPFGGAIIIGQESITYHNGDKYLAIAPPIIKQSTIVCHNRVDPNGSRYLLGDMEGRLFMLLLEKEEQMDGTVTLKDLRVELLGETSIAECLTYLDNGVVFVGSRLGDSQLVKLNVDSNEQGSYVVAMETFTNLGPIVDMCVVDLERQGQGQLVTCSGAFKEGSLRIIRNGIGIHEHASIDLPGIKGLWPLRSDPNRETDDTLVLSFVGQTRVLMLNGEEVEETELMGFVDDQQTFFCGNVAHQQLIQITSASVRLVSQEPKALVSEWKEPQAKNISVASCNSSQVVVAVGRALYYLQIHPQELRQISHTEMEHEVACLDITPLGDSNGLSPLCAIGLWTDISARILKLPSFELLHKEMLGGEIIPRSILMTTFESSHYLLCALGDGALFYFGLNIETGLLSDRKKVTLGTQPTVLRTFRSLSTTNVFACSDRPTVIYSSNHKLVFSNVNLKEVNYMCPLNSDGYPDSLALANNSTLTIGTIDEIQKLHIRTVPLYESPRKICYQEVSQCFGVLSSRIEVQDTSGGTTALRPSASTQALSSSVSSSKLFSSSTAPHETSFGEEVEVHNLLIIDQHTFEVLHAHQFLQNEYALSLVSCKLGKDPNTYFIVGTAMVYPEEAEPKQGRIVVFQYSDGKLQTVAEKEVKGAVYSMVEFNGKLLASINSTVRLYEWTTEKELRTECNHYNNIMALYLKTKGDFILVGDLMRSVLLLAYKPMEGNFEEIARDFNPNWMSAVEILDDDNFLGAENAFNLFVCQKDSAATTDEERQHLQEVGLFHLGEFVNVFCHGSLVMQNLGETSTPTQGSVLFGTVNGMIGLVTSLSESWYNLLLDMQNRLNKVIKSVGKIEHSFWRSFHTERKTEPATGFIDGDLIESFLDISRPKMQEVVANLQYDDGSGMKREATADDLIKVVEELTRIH

CK1α = target: T2, CK1α (Homo sapiens, UniProt P48729+Q96SW2); test: Western-blot assay, substrate protein degradation in hPBMCs: CK1α; format: cell-based; conditions: 24 hours of compound treatment, 50 nM and 500 nM
T2 construct: effects of the compounds of the present disclosure on the expression of target proteins in cells; endogenous in cells; host or cells: human PBMCs (hPBMCs)
T2 sequence (P48729 whole entry): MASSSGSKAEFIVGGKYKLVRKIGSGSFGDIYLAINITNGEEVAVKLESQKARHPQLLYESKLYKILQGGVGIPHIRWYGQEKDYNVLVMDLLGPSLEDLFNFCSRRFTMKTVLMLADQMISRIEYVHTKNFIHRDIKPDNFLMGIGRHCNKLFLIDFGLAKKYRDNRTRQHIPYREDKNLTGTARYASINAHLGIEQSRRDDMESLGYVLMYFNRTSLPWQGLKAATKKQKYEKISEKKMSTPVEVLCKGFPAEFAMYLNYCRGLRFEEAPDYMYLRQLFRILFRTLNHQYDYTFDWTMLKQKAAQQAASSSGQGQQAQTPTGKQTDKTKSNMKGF
T2 sequence (Q96SW2 whole entry): as the sequence (Q96SW2 whole entry) above
T2 sequence (Q16531 whole entry partner): as the sequence (Q16531 whole entry partner) above

IKZF2 = target: T3, IKZF2 (Homo sapiens, UniProt Q96SW2+Q9UKS7); test: Western-blot assay, substrate protein degradation in hPBMCs: IKZF2; format: cell-based; conditions: 24 hours of compound treatment, 50 nM and 500 nM
T3 construct: effects of the compounds of the present disclosure on the expression of target proteins in cells; endogenous in cells; host or cells: human PBMCs (hPBMCs)
T3 sequence (Q9UKS7 whole entry): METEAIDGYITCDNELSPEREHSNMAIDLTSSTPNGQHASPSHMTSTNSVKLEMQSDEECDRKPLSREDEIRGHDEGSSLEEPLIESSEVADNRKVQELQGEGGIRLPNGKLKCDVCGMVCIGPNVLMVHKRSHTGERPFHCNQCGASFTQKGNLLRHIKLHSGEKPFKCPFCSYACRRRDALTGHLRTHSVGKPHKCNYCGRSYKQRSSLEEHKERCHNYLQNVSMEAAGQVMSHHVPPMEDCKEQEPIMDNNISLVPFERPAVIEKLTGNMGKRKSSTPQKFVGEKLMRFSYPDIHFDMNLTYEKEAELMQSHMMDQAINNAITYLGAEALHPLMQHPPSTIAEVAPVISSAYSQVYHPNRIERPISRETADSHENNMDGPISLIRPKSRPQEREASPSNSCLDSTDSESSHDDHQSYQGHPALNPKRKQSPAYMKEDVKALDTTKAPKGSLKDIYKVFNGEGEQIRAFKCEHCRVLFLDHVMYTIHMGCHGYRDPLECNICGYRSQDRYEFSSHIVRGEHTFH
T3 sequence (Q96SW2 whole entry): as the sequence (Q96SW2 whole entry) above
T3 sequence (Q16531 whole entry partner): as the sequence (Q16531 whole entry partner) above

H292 = test: Cell viability assay (CellTiter-Meiluncell Luminescent), tumor cell proliferation, H292; conditions: Homo sapiens, NCI-H292, 96 h; for inhibition at 0.01 µM: read-out: Inhibition Rate at 10 nM (%); for inhibition at 0.5 µM: read-out: Inhibition Rate at 500 nM (%)
GSPT1 = target: T4, GSPT1 (Homo sapiens, UniProt P15170+Q96SW2); test: Western-blot assay, substrate protein degradation in hPBMCs: GSPT1; format: cell-based; conditions: 24 hours of compound treatment, 50 nM and 500 nM
T4 construct: effects of the compounds of the present disclosure on the expression of target proteins in cells; endogenous in cells; host or cells: human PBMCs (hPBMCs)
T4 sequence (P15170 whole entry): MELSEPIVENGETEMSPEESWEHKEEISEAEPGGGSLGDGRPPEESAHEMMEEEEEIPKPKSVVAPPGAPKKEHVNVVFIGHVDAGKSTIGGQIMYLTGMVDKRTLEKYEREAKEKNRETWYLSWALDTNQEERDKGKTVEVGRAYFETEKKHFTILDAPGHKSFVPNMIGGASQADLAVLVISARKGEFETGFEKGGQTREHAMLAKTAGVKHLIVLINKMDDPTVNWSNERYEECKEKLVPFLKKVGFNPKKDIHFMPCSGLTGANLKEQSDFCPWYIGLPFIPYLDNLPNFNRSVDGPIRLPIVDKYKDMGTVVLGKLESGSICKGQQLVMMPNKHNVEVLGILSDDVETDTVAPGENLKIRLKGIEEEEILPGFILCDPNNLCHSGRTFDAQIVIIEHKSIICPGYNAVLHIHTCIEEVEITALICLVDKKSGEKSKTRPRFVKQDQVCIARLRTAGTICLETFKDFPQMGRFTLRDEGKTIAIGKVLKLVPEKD
T4 sequence (Q96SW2 whole entry): as the sequence (Q96SW2 whole entry) above
T4 sequence (Q16531 whole entry partner): as the sequence (Q16531 whole entry partner) above

WEE1 = target: T5, WEE1 (Homo sapiens, UniProt P30291+Q96SW2); test: Western-blot assay, substrate protein degradation in hPBMCs: WEE1; format: cell-based; conditions: 24 hours of compound treatment, 50 nM and 500 nM
T5 construct: effects of the compounds of the present disclosure on the expression of target proteins in cells; endogenous in cells; host or cells: human PBMCs (hPBMCs)
T5 sequence (P30291 whole entry): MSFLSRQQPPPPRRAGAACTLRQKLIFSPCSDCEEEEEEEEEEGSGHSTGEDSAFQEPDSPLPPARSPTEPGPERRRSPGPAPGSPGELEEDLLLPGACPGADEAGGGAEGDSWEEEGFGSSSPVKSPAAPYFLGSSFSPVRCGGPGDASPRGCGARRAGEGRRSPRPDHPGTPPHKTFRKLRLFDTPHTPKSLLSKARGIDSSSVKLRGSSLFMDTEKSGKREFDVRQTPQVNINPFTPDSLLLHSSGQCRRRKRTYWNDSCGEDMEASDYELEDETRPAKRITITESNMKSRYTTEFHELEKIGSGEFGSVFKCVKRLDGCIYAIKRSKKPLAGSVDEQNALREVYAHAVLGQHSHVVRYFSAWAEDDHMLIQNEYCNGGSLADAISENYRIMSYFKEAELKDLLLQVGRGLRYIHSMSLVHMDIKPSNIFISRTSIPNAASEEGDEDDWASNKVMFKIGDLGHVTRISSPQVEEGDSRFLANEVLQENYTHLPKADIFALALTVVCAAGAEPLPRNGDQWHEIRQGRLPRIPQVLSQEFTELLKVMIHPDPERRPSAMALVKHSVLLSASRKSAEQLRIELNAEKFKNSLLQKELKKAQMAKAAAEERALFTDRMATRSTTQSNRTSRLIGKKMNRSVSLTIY
T5 sequence (Q96SW2 whole entry): as the sequence (Q96SW2 whole entry) above
T5 sequence (Q16531 whole entry partner): as the sequence (Q16531 whole entry partner) above

MDA-MB-231 = test: Cell viability assay (CellTiter-Meiluncell Luminescent), tumor cell proliferation, MDA-MB-231; conditions: Homo sapiens, MDA-MB-231, 96 h; for inhibition at 0.01 µM: read-out: Inhibition Rate at 10 nM (%); for inhibition at 0.5 µM: read-out: Inhibition Rate at 500 nM (%)
IKZF3 = target: T6, IKZF3 (Homo sapiens, UniProt Q96SW2+Q9UKT9); test: Western-blot assay, substrate protein degradation in hPBMCs: IKZF3; format: cell-based; conditions: 24 hours of compound treatment, 50 nM and 500 nM
T6 construct: effects of the compounds of the present disclosure on the expression of target proteins in cells; endogenous in cells; host or cells: human PBMCs (hPBMCs)

MV-4-11 = test: Cell viability assay (CellTiter-Meiluncell Luminescent), tumor cell proliferation, MV-4-11; conditions: Homo sapiens, MV4-11, 96 h

Compound	inhibition at 0.01 µM (H2228) [%]	inhibition at 0.5 µM (H2228) [%]	substrate protein remaining % IKZF1 (IKZF1)	substrate protein remaining % CK1α (CK1α)	substrate protein remaining % IKZF2 (IKZF2)	inhibition at 0.01 µM (H292) [%]	inhibition at 0.5 µM (H292) [%]	substrate protein remaining % GSPT1 (GSPT1)	substrate protein remaining % WEE1 (WEE1)	inhibition at 0.01 µM (MDA-MB-231) [%]	inhibition at 0.5 µM (MDA-MB-231) [%]	substrate protein remaining % IKZF3 (IKZF3)	inhibition at 0.01 µM (MV-4-11; read-out: Inhibition Rate at 10 nM (%)) [%]	inhibition at 0.5 µM (MV-4-11; read-out: Inhibition Rate at 500 nM (%)) [%]
Cc1sc2ncnc(N3CCN(Cc4ccc5c(c4)C(=O)N(N4CCC(=O)NC4=O)C5=O)CC3)c2c1C [GT-08094, 5-((4-(5,6-dimethylthieno[2,3-d]pyrimidin-4-yl)piperazin-1-yl)methyl)-2-(2,4-dioxotetrahydropyrimidin-1(2H)-yl)isoindoline-1,3-dione]	30 to 40	25 to 30	B (80%< substrate protein remaining %≤ 100%)	A (0% ≤ substrate protein remaining % ≤ 80%)	B (80%< substrate protein remaining %≤ 100%)	20 to 40	20 to 40	A (0% ≤ substrate protein remaining % ≤ 80%)	A (0% ≤ substrate protein remaining % ≤ 80%)	25 to 40	25 to 40	B (80%< substrate protein remaining %≤ 100%)	–	–
CC(C)c1cc2c(N3CCN(Cc4ccc5c(c4)CN(N4CCC(=O)NC4=O)C5=O)CC3)ncnc2s1 [GT-08060, 1-(5-((4-(6-isopropylthieno[2,3-d]pyrimidin-4-yl)piperazin-1-yl)methyl)-1-oxoisoindolin-2-yl)dihydropyrimidine-2,4(1H,3H)-dione]	20 to 25	30 to 40	B (80%< substrate protein remaining %≤ 100%)	B (80%< substrate protein remaining %≤ 100%)	A (0% ≤ substrate protein remaining % ≤ 80%)	20 to 40	20 to 40	B (80%< substrate protein remaining %≤ 100%)	B (80%< substrate protein remaining %≤ 100%)	25 to 40	25 to 40	A (0% ≤ substrate protein remaining % ≤ 80%)	–	–
Cc1cc2c(C3CCN(Cc4ccc5c(c4)CN(N4CCC(=O)NC4=O)C5=O)CC3)ncnc2s1 [GT-08083, 1-(5-((4-(6-methylthieno[2,3-d]pyrimidin-4-yl)piperidin-1-yl)methyl)-1-oxoisoindolin-2-yl)dihydropyrimidine-2,4(1H,3H)-dione]	25 to 30	30 to 40	B (80%< substrate protein remaining %≤ 100%)	A (0% ≤ substrate protein remaining % ≤ 80%)	B (80%< substrate protein remaining %≤ 100%)	20 to 40	20 to 40	A (0% ≤ substrate protein remaining % ≤ 80%)	B (80%< substrate protein remaining %≤ 100%)	25 to 40	25 to 40	B (80%< substrate protein remaining %≤ 100%)	–	–
O=C1CCN(N2Cc3cc(CN4CCC(c5cccc(F)c5F)CC4)ccc3C2=O)C(=O)N1 [GT-08194, 1-(5-((4-(2,3-difluorophenyl)piperidin-1-yl)methyl)-1-oxoisoindolin-2-yl)dihydropyrimidine-2,4(1H,3H)-dione]	20 to 25	20 to 25	A (0% ≤ substrate protein remaining % ≤ 80%)	B (80%< substrate protein remaining %≤ 100%)	B (80%< substrate protein remaining %≤ 100%)	–	–	A (0% ≤ substrate protein remaining % ≤ 80%)	B (80%< substrate protein remaining %≤ 100%)	18 to 25	25 to 40	B (80%< substrate protein remaining %≤ 100%)	18 to 25	60 to 80
O=C1CCN(N2Cc3cc(CN4CCN(c5ncnc6sccc56)CC4)ccc3C2=O)C(=O)N1 [GT-08057, 1-(1-oxo-5-((4-(thieno[2,3-d]pyrimidin-4-yl)piperazin-1-yl)methyl)isoindolin-2-yl)dihydropyrimidine-2,4(1H,3H)-dione]	30 to 40	20 to 25	A (0% ≤ substrate protein remaining % ≤ 80%)	B (80%< substrate protein remaining %≤ 100%)	B (80%< substrate protein remaining %≤ 100%)	15 to 20	15 to 20	A (0% ≤ substrate protein remaining % ≤ 80%)	B (80%< substrate protein remaining %≤ 100%)	25 to 40	25 to 40	B (80%< substrate protein remaining %≤ 100%)	–	–
